Test results from patent US11491244B2, “Labeled fluorocarbon agents for positron emission tomography imaging” (McMaster University, priority 2017, dated 2022).
Entries after “also recorded” stand apart in the source; their conditions may differ. Values belong to the compound of their own block, whether it stands above or below them.

Tests used:
[1] = Solubility of the fluorinated product in fluorocarbons; type: physicochemical
[2] = neat perfluorocarbon; cited from earlier work
[3] = Stability of [18F]CF3(CF2)7(CH2)3F in water, with and without sonication; type: physicochemical
Method: [^18F]CF3(CF2)7(CH2)3F (125 MBq) in FC-72 (2 mL) was separated into 4 equal samples, and water (0.5 mL) was added to each with stirring. At 0.5, 1, 2 and 4 h, the water layer was removed and the amount of activity measured. In addition, [^18F]CF3(CF2)7(CH2)3F (28 MBq) in FC-72 (130 μL) and DI water (2 mL) was suspended in ice and sonicated using a Branson, Digital S450D Sonifier (Emerson Canada, Markham, ON, Canada) for 10 min at 10% amplitude, using 1 second on-1 second off pulses. The samples were centrifuged and the activity in the aqueous layers were measured using a gamma counter.
The focus shifted to using precursors with a propyl spacer in an attempt to minimize the influence of the electron withdrawing fluorine groups. The mesylate CF3(CF2)7(CH2)3OMs and tosylate CF3(CF2)7(CH2)3OTs were prepared and labelled with [^18F]F^−. The tosylate produced the desired compound (RCY 15%±3; n=5) when the reaction was heated to 75° C. for 30 min. While the overall yield was modest, the product could be easily isolated and separated from impurities by liquid-liquid extraction using FC-72 and water.

- Solubility in FCs [1]: good solubility in FCs
SMILES: FCCC(F)(F)C(F)(F)C(F)(F)C(F)(F)C(F)(F)C(F)(F)C(F)(F)C(F)(F)F [CF3(CF2)7(CH2)2F]

SMILES: FC(F)(F)C(F)(F)C(F)(F)C(F)(F)C(F)(F)C(F)(F)F [PFH, perfluorohexane]
- Water Solubility 25° C. [2]: Insoluble
- Water Solubility 25° C. (bound) [2]: (<25 ppm)

SMILES: FC(F)(F)C(F)(F)C(F)(F)C(F)(F)C(F)(F)C(F)(F)C(F)(F)C(F)(F)Br [PFOB, perfluorooctylbromide]
- Water Solubility 25° C. [2]: Insoluble

- Free [18F]F− by radioHPLC and radioTLC ([3]; FC-72 solution extracted with water periodically over 4 h): no evidence of free [^18F]F^−
SMILES: FC(F)(F)C(F)(F)C(F)(F)C(F)(F)C(F)(F)C(F)(F)C(F)(F)C(F)(F)CCC[18F] [[^18F]CF3(CF2)7(CH2)3F]
- Activity in the aqueous layer post-sonication ([3]; FC-72 and DI water, sonicated without stabilizing surfactants): no activity was found in the aqueous layer
- Loss of fluoride in vitro / in solution ([3]; left in solution over the timeframe of the imaging studies): no signs of loss of fluoride; also recorded: stable with respect to loss of fluoride in vitro
